Tested on: Recombinant influenza A virus hemagglutinin H3 protein (HA)
Settings: SPR sensorgrams Fig. 3A-D

With “CVN2L0-V2: CVN2L0 variant with one C58E–C73R substitution, three disulfide bonds” the “Rmax, binding to HA” value was 723 RU.

B1: CVN2L0-V4: CVN2L0 variant with Cys–Cys mutagenesis to Trp–Met and Glu–Arg, two disulfide bonds (protein)
chain: LGKFSQTCYNSAIQGSVLTSTCERTNGGYNTSSIDLNSVIENVDGSLKWQPSNFIETWRNTQLAGSSELAAEMKTRAQQFVSTKINLDDHIANIDGTLKYELGKFSQTCYNSAIQGSVLTSTCERTNGGYNTSSIDLNSVIENVDGSLKWQPSNFIETERNTQLAGSSELAAERKTRAQQFVSTKINLDDHIANIDGTLKYE
modifications: left off: His6, N-terminal, state not stated
In the case of B1, the “Rmax, binding to HA” value is reported as 34 RU.
